Laboratory results taken from US20070224301A1, “Compounds from an extract of Artemisia and methods for treating disorders” (priority 2006, published 2007).

Columns and labels:
[1] = biological target: T1, human recombinant ALR2 enzyme (Homo sapiens, UniProt P15121); assay: ALR2 enzyme assay (decrease in NADPH absorbance at 340 nm); type: biochemical; settings: for ALR2 inhibitory activity (in words, compared with quercitrin): 3.75 μg/ml where stated
T1 construct: purchased Wako Chemicals USA Inc
Procedure: Human recombinant ALR2 enzyme was purchased from Wako Chemicals USA Inc. Enzyme activity was measured at each step of purification of the extract, by monitoring the decrease in NADPH absorbance at a wavelength of 340 nm (Nishimura et al., Purification and characterization of recombinant aldose reducatse expressed in baculovirus system. Biochim. Biophys. acta. pp. 1078-1171 (1991)), using a spectrophotometer. One hundred micro liters of the reaction mixture contained 100 mM sodium phosphate buffer (pH 6.2), 0.15 mM NADPH, 10 mM DL-Glyceraldehyde and 1 mU of human recombinant ALR2 enzyme. The samples were prepared in 10% DMSO and the final concentration of the samples or the positive control quercitrin was 3.75 μg/ml. The reaction was initiated by adding the enzyme and the change in NADPH absorbance was monitored over seven minutes.

PEPCK gene expression = assay: PEPCK gene inhibition assay (Dex/cAMP-induced, qPCR) in H4IIE hepatoma cells; type: cell-based, rat; settings: 25 μg/ml
Procedure: H4IIE hepatoma cells (ATCC CRL-1600) were plated in 24-well tissue culture plates (Greiner Bio One) and were grown to confluence in Dulbecco's modified Eagle's medium (DMEM) containing 2.5% (v/v) newborn calf serum and 2.5% (v/v) fetal calf serum. Cells were treated for 8 hours with 500 nM dexamethasone and 0.1 mM cAMP (Dex/cAMP, both Sigma) to induce PEPCK gene expression and different concentrations or volumes of each of the tested compounds, plant extract or […] of Insulin. The fractions were tested at 50 μg/ml of media and the compounds were tested at the doses of 2.5 μg/ml, 5 μg/ml and 10 μg/ml and 25 μg/ml. Three wells were allocated for each treatment as well as for a negative control (untreated cells).
Total RNA was extracted from H4IIE rat hepatoma cells using Trizol reagent (Invitrogen Inc.) following the manufacturer instructions. RNA was quantified spectro-photo-metrically by absorption measurements at 260 nm and 280 nm using the NanoDrop system (NanoDrop Technologies Inc. Delware, USA). Quality of RNA was assessed by separation in gel-electrophoresis. […]
The synthesized cDNAs were diluted 4-fold. […] The other components of the PCR reactions were 0.5 μl of 6 μM gene specific primers (synthesized by IDT Inc. USA), 12.5 μl of Brilliant SYBR green PCR master mix (2×) (Stratagene, La Jolla, Calif.) containing green jump-start Taq ready mix. […]

PTP-1B = biological target: T2, PTP-1B (Homo sapiens, UniProt P18031); assay: PTP-1B activity by PNPP hydrolysis after immunoprecipitation from treated skeletal muscle cells; type: cell-based; settings: 20 μg/ml of media; for PTP-1B inhibitory activity (decrease of PTP-1B activity): primary skeletal muscle culture from subjects with type 2 diabetes, 16 hours
T2 construct: Cell lysate was prepared and PTP-1B was immunoprecipitated with specific antibody; endogenous in cells; host or cells: primary skeletal muscle cell culture (subjects with type 2 diabetes)
T2 sequence (P18031 1-435): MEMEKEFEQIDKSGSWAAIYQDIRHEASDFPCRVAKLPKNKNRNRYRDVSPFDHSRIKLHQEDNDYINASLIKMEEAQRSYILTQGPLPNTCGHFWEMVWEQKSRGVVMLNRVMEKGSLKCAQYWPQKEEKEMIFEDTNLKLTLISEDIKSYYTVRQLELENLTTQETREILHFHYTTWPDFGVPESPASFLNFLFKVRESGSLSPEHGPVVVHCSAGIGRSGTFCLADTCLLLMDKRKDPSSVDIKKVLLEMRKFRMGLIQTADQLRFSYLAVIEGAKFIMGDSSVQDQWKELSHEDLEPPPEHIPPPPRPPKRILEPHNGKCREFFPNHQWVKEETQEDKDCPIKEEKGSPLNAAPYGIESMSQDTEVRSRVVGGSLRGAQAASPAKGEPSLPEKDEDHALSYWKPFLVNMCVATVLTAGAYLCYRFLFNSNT
Procedure: The activity of PTP-1B was assayed by hydrolysis of p-nitrophenol phosphate (PNPP). Skeletal muscle cells were incubated overnight (16 hours) with test substance (extract, fractions or pure compounds) at 20 μg/ml of media. Cell lysate was prepared and PTP-1B was immunoprecipitated with specific antibody (Upstate Biotechnology, Lake Placid, N.Y.). The immunoprecipitate was incubated in Phosphatase Reaction Buffer (20 mmol/L HEPES, pH 7.4, 150 mmol/L NaCl, 5 mM dithiothreitol, 1 mmol/L PNPP) for 20 minutes at 37° C. The reaction was stopped with 0.2 mol/L NaOH, and the absorbance at 410 nm was measured. The reactions were run in triplicate (Moeslein et al., The CLK family kinases, CLK1 and CLK2, phosphorylate and activate the tyrosine phosphatase, PTP-1B. J Biol Chem, 274:26697-26704 (1999)).

PTP-1B mRNA = assay: Quantitative real time PCR for PTP-1B gene expression; type: cell-based; settings: skeletal muscle cells, 20 μg/ml of media
Procedure: Cells were incubated overnight (16 hours) with test substance (extract, fractions or pure compounds) at 20 μg/ml of media and harvested from the culture treatments at the designated time points. After extraction and quantification of RNA, quantitative real time PCR (qPCR) analysis was carried out using Taqman® one-step RT-PCR Master Mix (Applied Biosystems, Branchburg, N.J.). 20 ng of total RNA were added per 50 μl reaction with sequence-specific primers (200 nM) and Taqman® probes (200 nM) as indicated here, PTP-1B probe; 5′FAM d(AGTGATGGAGAAAGGTT)BHQ-1 3′. PTP-1B forward primer; 5′ d([…])3′ and PTP-1B reverse primer; 5′ d([…])3′. Primers and probes were designed by and purchased from Applied Biosystems. qPCR assays were carried out in triplicate on an ABI Prism 7700 sequence detection system. […] The threshold was set above the non-template control background and within the linear phase of target gene amplification to calculate the cycle number at which the transcript was detected (denoted CT). Gene expression values were calculated based on the standard curve of each target gene (RNA of control cells with two-fold serial dilutions from 200 ng to 3.125 ng) and normalized by the reference housekeeping gene β-Actin (1). Results were expressed as percentage change of control (Applied Biosystems (2001) Applied Biosystems User Bulletin Number 2, Foster City, Calif.).

## COc1ccc(CCC(=O)c2ccc(O)cc2O)cc1 (single isomer, unassigned) [F7-9/P3, 2′,4′-dihydroxy-4-methoxydihydrochalcone]
[1]; 3.75 μg/ml
  inhibition at 3.75 µg/mL: 58.2%

## O=C(/C=C/c1ccc(O)c(O)c1)OC1CC(O)(C(=O)O)CC(O)C1OC(=O)/C=C/c1ccc(O)c(O)c1 (single isomer, unassigned) [Sub-fraction 5-7, 4,5-Di-O-caffeoylquinic acid]
[1]; 3.75 μg/ml
  greater inhibition of ALR2 than that caused by quercitrin: 19%
  inhibition at 3.75 µg/mL: 78%

## O=C(/C=C/c1ccc(O)c(O)c1)OC1CC(O)(C(=O)O)CC(O)C1OC(=O)/C=C/c1ccc(O)c(O)c1 (stereo not shown) [Compound 1, 4,5-Di-O-caffeoylquinic acid]
[1]
  ALR2 inhibitory activity (in words, compared with quercitrin): highest inhibitory activity

## O=C(CCc1ccc(O)cc1)c1ccc(O)cc1O [Compound 2, Davidigenin]
[1]
  ALR2 inhibitory activity (in words, compared with quercitrin): shows ALR2 inhibition activity

## COc1ccc(CCC(=O)c2ccc(O)cc2O)cc1 [Compound 4, 2′,4′-dihydroxy-4-methoxydihydrochalcone]
PEPCK gene expression
  repression of dexamethazone/cAMP-induced PEPCK gene expression: more than 50%
PEPCK gene expression; listed as DMDC
  repression of dexamethazone/cAMP-induced PEPCK gene expression: more than 50%
PTP-1B
  PTP-1B inhibitory activity (decrease of PTP-1B activity): ≤ 26%
PTP-1B mRNA
  reduction of PTP-1B mRNA expression: 29%

## COc1ccc(C(=O)CCc2ccc(O)cc2)c(O)c1 [Compound 5, 2′,4-dihydroxy-4′-methoxydihydrochalcone]
PTP-1B
  PTP-1B inhibitory activity (decrease of PTP-1B activity): ≤ 36%

## COc1cc(O)c2c(c1)O[C@H](c1ccc(O)cc1)CC2=O [Compound 6, Sakuranetin]
PTP-1B
  PTP-1B inhibitory activity (decrease of PTP-1B activity): ≤ 50%
PTP-1B; skeletal muscle cells
  PTP-1B inhibitory activity (in words): decrease PTP-1B activity

## C[C@@H]1O[C@@H](Oc2c(-c3ccc(O)c(O)c3)oc3cc(O)cc(O)c3c2=O)[C@H](O)[C@H](O)[C@H]1O [quercitrin, reference compound]
[1]; 3.75 μg/ml
  inhibition at 3.75 µg/mL: 54%
